{"source": "patent US20200038418A1", "about": "“METHODS OF TREATING AUTISM SPECTRUM DISORDER USING AMINOSTEROL COMPOSITIONS” (Enterin, Inc., priority 2018, published 2020)", "key": {"[1]": {"experiment": "Phase 2 trial Stage 2, adverse events", "assay_type": "in vivo, human", "protocol": "In Stage 2, 34 patients were evaluated."}, "[2]": {"test_system": "patients with PD and constipation", "experiment": "Stage 2 CNS symptoms (UPDRS, MMSE, PDHQ, BDI-II)", "assay_type": "in vivo, human", "conditions": "for UPDRS Part 1 (NMS) (Mean, SD) / BDI-II (Mean, SD) / PDHQ (Mean, SD): n = 34; for hallucinations and delusions improved or disappeared: during treatment, patients with hallucinations or delusions at baseline", "from_the_text": "(9) Unified Parkinson's Disease Rating Scale (UPDRS), which consists of 42 items in four subscales (Part I=Non-Motor Aspects of Experiences of Daily Living (nM-EDL) (1.1 cognitive impairment, 1.2 hallucinations and psychosis, 1.3 depressed mood, Part II=Motor Aspects of Experiences of Daily Living (M-EDL), Part III=Motor Examination, and Part IV=Motor Complications;\nExploratory end-points, in addition to constipation, included for example, (i) depression assessed using the Beck Depression Inventory (BDI-II) (Steer et al. 2000) and Unified Parkinson's Disease Rating Scale (UPDRS); (ii) cognition assessed using the Mini Mental State Examination (MMSE) (Palsteia et al., 2018), Unified Parkinson's Disease Rating Scale (UPDRS), and Trail Making Test (TMT); (iii) sleep and REM-behavior disorder (RBD) using a daily sleep diary, I-Button Temperature Assessment, a REM sleep behavior disorder (RBD) questionnaire (RBDQ) (Stiasny-Kolster et al. 2007), and the UPDRS; (iv) hallucinations assessed using the PD hallucinations questionnaire (PDHQ) (Papapetropoulos et al. 2008), the UPDRS, and direct questioning; (v) fatigue using the Parkinson's Disease Fatigue Scale (PFS-16) and the UPDRS; (vi) motor functions using the UPDRS; and (vii) non-motor functions using the UPDRS.\nAssessments were made at baseline and at the end of the fixed dose and washout periods. Circadian system status was evaluated by continuously monitoring wrist skin temperature (Thermochron iButton DS1921H; Maxim, Dallas) following published procedures (Sarabia et al. 2008).\nAn exploratory analysis was done with respect to the sleep data, the body temperature data, mood, fatigue, hallucinations, cognition and other motor and non-motor symptoms of PD. Continuous measurements within a subject were compared with a paired t-test and continuous measurements between subject groups were compared with a two-group t-test. Categorical data were compared with a chi-squared test or a Fisher's exact test if the expected cell counts are too small for a chi-squared test."}, "C. elegans model of PD": {"test_system": "C. elegans model of PD", "conditions": "C. elegans model of PD in vivo; cited from earlier work"}, "[3]": {"conditions": "Stage 2 (34 dosed), daily oral dosing"}, "[4]": {"conditions": "Stage 2 (34 dosed), daily oral dosing, unrelated to ENT-01"}, "[5]": {"conditions": "Stage 2, fixed dose (during treatment)"}, "[6]": {"conditions": "Stage 2, fixed dose (during treatment), listed as Squalamine (ENT-01)"}, "[7]": {"conditions": "Stage 2, wash-out, listed as Squalamine (ENT-01)"}}, "data": [{"smiles": "CC(C)[C@@H](CC[C@@H](C)[C@H]1CC[C@H]2[C@@H]3[C@H](O)C[C@H]4C[C@@H](NCCCNCCCCN)CC[C@]4(C)[C@H]3CC[C@]12C)OS(=O)(=O)O", "note": "(single isomer, unassigned) [squalamine (ENT-01), squalamine]", "values": [{"measurement": "Abdominal pain, Mild", "setting": "[1]; [3]", "value": "4(11.7) n, %"}, {"measurement": "Abdominal pain, Moderate", "setting": "[1]; [3]", "value": "2(5.8) n, %"}, {"measurement": "Blood in urine, Moderate", "setting": "[1]; [3]", "value": "0 n, %"}, {"measurement": "Diarrhea, Mild", "setting": "[1]; [3]", "value": "12(35) n, %"}, {"measurement": "Diarrhea, Moderate", "setting": "[1]; [3]", "value": "2(5.8) n, %"}, {"measurement": "Diarrhea, Severe", "setting": "[1]; [3]", "value": "1(2.9) n, %"}, {"measurement": "Difficulty falling asleep, Mild", "setting": "[1]; [3]", "value": "1(3) n, %"}, {"measurement": "Difficulty falling asleep, Moderate", "setting": "[1]; [3]", "value": "0 n, %"}, {"measurement": "Dizziness, Mild", "setting": "[1]; [3]", "value": "7(20.5) n, %"}, {"measurement": "Dizziness, Moderate", "setting": "[1]; [3]", "value": "1(2.9) n, %"}, {"measurement": "Eye infection, Mild", "setting": "[1]; [3]", "value": "1(3) n, %"}, {"measurement": "Eye infection, Moderate", "setting": "[1]; [3]", "value": "0 n, %"}, {"measurement": "Flatulence, Mild", "setting": "[1]; [3]", "value": "1(3) n, %"}, {"measurement": "Flatulence, Moderate", "setting": "[1]; [3]", "value": "0 n, %"}, {"measurement": "Headache, Mild", "setting": "[1]; [3]", "value": "3(8.8) n, %"}, {"measurement": "Headache, Moderate", "setting": "[1]; [3]", "value": "0 n, %"}, {"measurement": "Increased urinary frequency, Mild", "setting": "[1]; [3]", "value": "2(5.8) n, %"}, {"measurement": "Increased urinary frequency, Moderate", "setting": "[1]; [3]", "value": "0 n, %"}, {"measurement": "Loss of appetite, Moderate", "setting": "[1]; [3]", "value": "0 n, %"}, {"measurement": "Nausea, Mild", "setting": "[1]; [3]", "value": "18(52) n, %"}, {"measurement": "Nausea, Moderate", "setting": "[1]; [3]", "value": "1(2.9) n, %"}, {"measurement": "Skin lesions-rash, Mild", "setting": "[1]; [3]", "value": "3(8.8) n, %"}, {"measurement": "Skin lesions-rash, Moderate", "setting": "[1]; [3]", "value": "0 n, %"}, {"measurement": "Urinary retention, Mild", "setting": "[1]; [3]", "value": "1(3) n, %"}, {"measurement": "Urinary retention, Moderate", "setting": "[1]; [3]", "value": "0 n, %"}, {"measurement": "Urinary tract infection, Mild", "setting": "[1]; [3]", "value": "1(3) n, %"}, {"measurement": "Urinary tract infection, Moderate", "setting": "[1]; [3]", "value": "2(5.8) n, %"}, {"measurement": "Vomiting, Mild", "setting": "[1]; [3]", "value": "2(5.8) n, %"}, {"measurement": "Vomiting, Moderate", "setting": "[1]; [3]", "value": "0 n, %"}, {"measurement": "Worsening acid reflux, Mild", "setting": "[1]; [3]", "value": "4(11.7) n, %"}, {"measurement": "Worsening acid reflux, Moderate", "setting": "[1]; [3]", "value": "0 n, %"}, {"measurement": "Worsening hemorrhoid, Mild", "setting": "[1]; [3]", "value": "1(3) n, %"}, {"measurement": "Worsening hemorrhoid, Moderate", "setting": "[1]; [3]", "value": "0 n, %"}, {"measurement": "Blood in urine, Mild", "setting": "[1]; [4]", "value": "0 n, %"}, {"measurement": "Loss of appetite, Mild", "setting": "[1]; [4]", "value": "0 n, %"}, {"measurement": "Lower GI bleed, Severe", "setting": "[1]; Stage 2, daily oral dosing, colonic diverticulosis, polyp, patient on aspirin, Plavix and naproxen, unrelated to ENT-01", "value": "1(2.5) n, %"}, {"measurement": "time hallucinations and delusions did not return following discontinuation", "setting": "[2]; 1 patient", "value": 4, "unit": "weeks"}, {"measurement": "UPDRS Part 1 (NMS) (Mean, SD)", "setting": "[2]; Stage 2, end of fixed dose", "value": "10.6 (6.18))"}, {"measurement": "UPDRS Part 1 (NMS) (Mean, SD)", "setting": "[2]; Stage 2, end of wash-out", "value": "9.5 (5.27)"}, {"measurement": "UPDRS Part 1 (NMS) (Mean, SD)", "setting": "[2]; Stage 2, end of wash-out, listed as aminosterol", "value": 9.5}, {"measurement": "BDI-II (Mean, SD)", "setting": "[2]; [5]", "value": 9.9}, {"measurement": "PDHQ (Mean, SD)", "setting": "[2]; [5]", "value": 1.8}, {"measurement": "BDI-II (Mean, SD)", "setting": "[2]; [6]", "value": "9.9 (6.45)"}, {"measurement": "PDHQ (Mean, SD)", "setting": "[2]; [6]", "value": "1.8 (3.34)"}, {"measurement": "BDI-II (Mean, SD)", "setting": "[2]; Stage 2, fixed dose (during treatment), listed as aminosterol", "value": 9.9}, {"measurement": "BDI-II (Mean, SD)", "setting": "[2]; Stage 2, wash-out", "value": 8.7}, {"measurement": "PDHQ (Mean, SD)", "setting": "[2]; Stage 2, wash-out", "value": 0.9}, {"measurement": "BDI-II (Mean, SD)", "setting": "[2]; [7]", "value": "8.7 (5.19)"}, {"measurement": "PDHQ (Mean, SD)", "setting": "[2]; [7]", "value": "0.9 (2.33)"}, {"measurement": "BDI-II (Mean, SD)", "setting": "[2]; Stage 2, wash-out, listed as aminosterol", "value": 8.7}, {"measurement": "time hallucinations and delusions did not return following discontinuation", "setting": "[2]; another patient", "value": 2, "unit": "weeks"}, {"measurement": "hallucinations and delusions improved or disappeared", "setting": "[2]", "value": "5 of 6"}, {"measurement": "hallucinations and delusions improved or disappeared", "setting": "[2]; listed as ENT-01", "value": "five"}, {"measurement": "formation of aggregates of αS", "setting": "C. elegans model of PD", "value": "inhibit the formation of aggregates of αS"}]}]}
